Laboratory results: paper PMC5632533, “Mechanisms of action and in vivo antibacterial efficacy assessment of five novel hybrid peptides derived from Indolicidin and Ranalexin against Streptococcus pneumoniae” (PeerJ, 2017)

Experiments:
Streptococcus pneumoniae = details: 30 pneumococcal clinical isolates; earlier study; ref Jindal et al., 2015; cited from earlier work
Source text: Table 1 Sequences and physicochemical properties of the template and hybrid AMPs. | column: MIC^a || One of the advantageous alternatives to today’s antibiotics is antimicrobial peptides (AMPs) ([Deslouches et al., 2013]; [Sánchez-Vásquez et al., 2013]). AMPs are synthesized by almost all living beings as the first line of defense in their immune system against microbial infection. Many aspects favor AMPs over traditional antibiotics: a broad range of antimicrobial activity against pathogenic micro-organisms (including viruses, parasites, bacteria, and fungi), microbial pathogens are less efficient in developing resistance against AMPs, as killing take place in a short contact time and AMPs c ...

ICR (CD-1) mice = assay: In vivo toxicity in mice (SC, IN, IP routes); set-up: Aspartate aminotransferase, AST / Alanine transaminase, ALT / Alkaline phosphatase, ALP / Creatinine / Urea / Total bilirubin: unit not given here; details: for Eosinophil / Erythrocytes, RBC / Granulocytes / Hematocrit, HCT / Hemoglobin Hgb / Lymphocytes / Mean corpuscular haemoglobin concentration, MCHC / Mean corpuscular haemoglobin, MCH / Mean corpuscular volume, MCV / Monocytes / White blood cells, WBC / platelet Counts, PLT / Alanine transaminase, ALT / Alkaline phosphatase, ALP / Aspartate aminotransferase, AST / Creatinine / Total bilirubin / Urea: 3 doses (1hr, 12hr, 24hr), RN7-IN9, RN7-IN6 10 mg/kg, day 7, mean±SD, 4 mice; for Alanine transaminase, ALT / Alkaline phosphatase, ALP / Aspartate aminotransferase, AST / Creatinine / Total bilirubin / Urea: serum
Experimental: In this study, 4-week old male, pathogen free ICR (CD-1) mice were purchased from InVivos (Lim Chu Kang, Singapore) and used to assess the in vivo toxicity and antibacterial efficacy of the novel peptides, as these animals are by far the most commonly used model for the study of pneumococcal disease ([Chiavolini, Pozzi & Ricci, 2008]). The mice were kept in ventilated polycarbonate cages (12 h light/dark cycle, 20 ± 2 °C and 55% relative humidity). All mice were familiarized for seven days before any experimental procedure and were given unlimited pellets and water ad libitum. All animal experimentations were conducted according to the guidelines approved by Faculty of Medicine Institutional Animal Care and Use Committee (FOM IACUC), University of Malaya (ethics Reference no. : 2013-07-15/MMBTR/SDS).
In order to evaluate the possible toxic effects correlated to peptides administered in mice, four hybrid peptides RN7-IN10, RN7-IN9, RN7-IN8 and RN7-IN6 were chosen for in vivo toxicity assessment, due to their promising in vitro antibacterial activity ([Jindal et al., 2015]). Mice were separated into four groups (each with four mice) and were injected with respective peptides at 1 h, 12 h, and 24 h (three-dose regimen) via IP, SC, and IN administration routes. The hybrid peptides were first administered at high doses (100 mg/kg for IP route, 100 mg/kg for SC routes and 20 mg/kg for IN route). Any abnormal behavior was recorded and survival of mice was noted as well. In case adverse effects such as high physical stress, severe lethargy, physical inactiveness, and/or death were detected, lower graded doses were given. All the administered mice were monitored for seven days or until death occurred. At day seven post administration, all animals were sacrificed and blood and organs were collected. Untreated mice were used as a control group.
Mice used to evaluate the in vivo toxicity and antibacterial activity of the hybrid peptides using the subcutaneous (SC) and intranasal (IN) administration routes, were anesthetized using a combination of a standard dose of xylazine (ilium xylazil-20, 10 mg/kg) and ketamine (Narketan®-10, 100 mg/kg) through intraperitoneal (IP) injection. After seven days of treatment, the in vivo toxicity and antibacterial efficacy experiments were ended and the surviving mice were anesthetized. Blood samples for Hematological and biochemical analysis were collected via cardiac puncture using a 25G syringe (BD bioscience, San Jose, CA, USA). Whole blood for heamatological analysis was collected in 500 µl dipotassium EDTA microtainer tubes (BD Bioscience, USA). About 500 µl of blood collected an eppedorff tube and centrifuged at 8000 rpm for 5 min and then the serum was transferred into a new 1.5 ml tube for biochemistry analysis. The mice were then euthanized by cervical dislocation, dissected and the following organs were collected for histopathology evaluation: lung, kidney, brain, liver and spleen.
For whole blood analysis, the parameters were number of red cells (RBC), number of white cells (WBC), lymphocytes, monocytes, eosinophil, granulocytes, haemoglobin (Hgb), mean corpuscular volume (MCV), hematocrit (HCT), platelet Counts (PLT), Mean corpuscular haemoglobin (MCH) and corpuscular haemoglobin concentration (MCHC). For biochemistry analysis, the parameters were alanine transaminase (ALT), creatinine, alkaline phosphatase (ALP), aspartate aminotransferase (AST), total bilirubin and urea.
The following organs were collected from all the dissected mice: lung, kidney, brain, spleen, and liver. All tissues were fixed in 10% (v/v) buffered formalin and processed for paraffin embedding. Hematoxylin–eosin (HE) was used to stain the histological sections at the histopathology laboratory, Veterinary Laboratory Service Unit, University Putra Malaysia (UPM).

[1] = IN, head doses: RN7-IN10, RN7-IN8 20 mg/kg
[2] = SC, head doses: RN7-IN10, RN7-IN8 20 mg/kg

**Q.** For “FLGGLIKWPWWPWRR-NH2 [RN7-IN8, hybrid peptide of ranalexin (residues 1-7) and indolicidin (residues 6-13)]”, which “MIC, minimum inhibitory concentration” value (Streptococcus pneumoniae) is on record?
**A.** The value was 7.81 to 15.62 µg/mL.

**Q.** And the Eosinophil (ICR (CD-1) mice; [1])?
**A.** The Eosinophil was 4.3±3.6%.

**Q.** And the “Erythrocytes, RBC” value (ICR (CD-1) mice; [1])?
**A.** Its value is 8.95±0.53 10^6/mm^3.

**Q.** And the Granulocytes (ICR (CD-1) mice; [1])?
**A.** The Granulocytes was 52.9±9.54%.

**Q.** What about the “Hematocrit, HCT” value (ICR (CD-1) mice; [1]) of the same substance?
**A.** The value was 44.8±2.9%.

**Q.** What about the “Hemoglobin Hgb” value (ICR (CD-1) mice; [1]) of the same substance?
**A.** The value was 14.42 ± 0.76 g/dL.

**Q.** And the Lymphocytes (ICR (CD-1) mice; [1])?
**A.** The Lymphocytes was 45.6±14.31%.

**Q.** And the “Mean corpuscular haemoglobin concentration, MCHC” value (ICR (CD-1) mice; [1])?
**A.** Its value is 32.22 ± 0.4 g/dL.

**Q.** What about the “Mean corpuscular haemoglobin, MCH” value (ICR (CD-1) mice; [1]) of the same substance?
**A.** The value was 16.12 ± 0.33 pg.

**Q.** What about the “Mean corpuscular volume, MCV” value (ICR (CD-1) mice; [1]) of the same substance?
**A.** Its value is 50.25±1.25 µm^3.

**Q.** What about the Monocytes (ICR (CD-1) mice; [1]) of the same substance?
**A.** The Monocytes was 3.22±0.68%.

**Q.** And the “White blood cells, WBC” value (ICR (CD-1) mice; [1])?
**A.** Its value is 3.95±0.54 10^3/mm^3.

**Q.** What about the “platelet Counts, PLT” value (ICR (CD-1) mice; [1]) of the same substance?
**A.** Its value is 612±130.37 10^3/mm^3.

**Q.** And the Eosinophil (ICR (CD-1) mice; IP, RN7-IN10, RN7-IN8 20 mg/kg)?
**A.** The Eosinophil was 2.34±0.63%.

**Q.** What about the “Erythrocytes, RBC” value (ICR (CD-1) mice; IP, RN7-IN10, RN7-IN8 20 mg/kg) of the same substance?
**A.** The value was 8.14±0.34 10^6/mm^3.

**Q.** What about the Granulocytes (ICR (CD-1) mice; IP, RN7-IN10, RN7-IN8 20 mg/kg) of the same substance?
**A.** Its Granulocytes is 53.38±12.35%.

**Q.** What about the “Hematocrit, HCT” value (ICR (CD-1) mice; IP, RN7-IN10, RN7-IN8 20 mg/kg) of the same substance?
**A.** The value was 42.73±1.66%.

**Q.** And the “Hemoglobin Hgb” value (ICR (CD-1) mice; IP, RN7-IN10, RN7-IN8 20 mg/kg)?
**A.** Its value is 14.55 ± 0.17 g/dL.

**Q.** And the Lymphocytes (ICR (CD-1) mice; IP, RN7-IN10, RN7-IN8 20 mg/kg)?
**A.** Its Lymphocytes is 53.7±8.22%.

**Q.** And the “Mean corpuscular haemoglobin concentration, MCHC” value (ICR (CD-1) mice; IP, RN7-IN10, RN7-IN8 20 mg/kg)?
**A.** The value was 34.17 ± 1.13 g/dL.

**Q.** What about the “Mean corpuscular haemoglobin, MCH” value (ICR (CD-1) mice; IP, RN7-IN10, RN7-IN8 20 mg/kg) of the same substance?
**A.** Its value is 17.92 ± 0.56 pg.

**Q.** What about the “Mean corpuscular volume, MCV” value (ICR (CD-1) mice; IP, RN7-IN10, RN7-IN8 20 mg/kg) of the same substance?
**A.** Its value is 52.75±0.95 µm^3.

**Q.** What about the Monocytes (ICR (CD-1) mice; IP, RN7-IN10, RN7-IN8 20 mg/kg) of the same substance?
**A.** The Monocytes was 2.77±0.88%.

**Q.** What about the “White blood cells, WBC” value (ICR (CD-1) mice; IP, RN7-IN10, RN7-IN8 20 mg/kg) of the same substance?
**A.** Its value is 4.18±0.36 10^3/mm^3.

**Q.** And the “platelet Counts, PLT” value (ICR (CD-1) mice; IP, RN7-IN10, RN7-IN8 20 mg/kg)?
**A.** Its value is 472.5±100.52 10^3/mm^3.

**Q.** And the “maximum IP dose at which no signs of stress or abnormal behavior were evident (non-toxic dose)” value (ICR (CD-1) mice; IP, doses at 1 h, 12 h, 24 h, no death up to seven days)?
**A.** The value was 20 mg/kg.

**Q.** What about the Eosinophil (ICR (CD-1) mice; [2]) of the same substance?
**A.** Its Eosinophil is 2.42±0.61%.

**Q.** What about the “Erythrocytes, RBC” value (ICR (CD-1) mice; [2]) of the same substance?
**A.** Its value is 9.17±0.83 10^6/mm^3.

**Q.** And the Granulocytes (ICR (CD-1) mice; [2])?
**A.** Its Granulocytes is 58.62±9.82%.

**Q.** And the “Hematocrit, HCT” value (ICR (CD-1) mice; [2])?
**A.** Its value is 46.15±3.69%.

**Q.** What about the “Hemoglobin Hgb” value (ICR (CD-1) mice; [2]) of the same substance?
**A.** Its value is 15.82 ± 1.11 g/dL.

**Q.** What about the Lymphocytes (ICR (CD-1) mice; [2]) of the same substance?
**A.** Its Lymphocytes is 43.85±6.28%.

**Q.** What about the “Mean corpuscular haemoglobin concentration, MCHC” value (ICR (CD-1) mice; [2]) of the same substance?
**A.** Its value is 34.38 ± 0.52 g/dL.

**Q.** And the “Mean corpuscular haemoglobin, MCH” value (ICR (CD-1) mice; [2])?
**A.** Its value is 17.32 ± 0.49 pg.

**Q.** What about the “Mean corpuscular volume, MCV” value (ICR (CD-1) mice; [2]) of the same substance?
**A.** Its value is 50.25±0.95 µm^3.

**Q.** And the Monocytes (ICR (CD-1) mice; [2])?
**A.** The Monocytes was 1.92±0.15%.

**Q.** And the “White blood cells, WBC” value (ICR (CD-1) mice; [2])?
**A.** The value was 3.47±0.48 10^3/mm^3.

**Q.** What about the “platelet Counts, PLT” value (ICR (CD-1) mice; [2]) of the same substance?
**A.** Its value is 445.75±47.21 10^3/mm^3.

**Q.** And the “Alanine transaminase, ALT” value (ICR (CD-1) mice; [1])?
**A.** Its value is 44.5±18.9.

**Q.** What about the “Alkaline phosphatase, ALP” value (ICR (CD-1) mice; [1]) of the same substance?
**A.** Its value is 128.5±21.7.

**Q.** What about the “Aspartate aminotransferase, AST” value (ICR (CD-1) mice; [1]) of the same substance?
**A.** Its value is 176.3±31.91.

**Q.** What about the Creatinine (ICR (CD-1) mice; [1]) of the same substance?
**A.** The Creatinine was 40.56±1.74.

**Q.** What about the Total bilirubin (ICR (CD-1) mice; [1]) of the same substance?
**A.** Its Total bilirubin is 2.21±0.18.

**Q.** What about the Urea (ICR (CD-1) mice; [1]) of the same substance?
**A.** The Urea was 8.89±1.30.

**Q.** And the “Alanine transaminase, ALT” value (ICR (CD-1) mice; IP, RN7-IN10, RN7-IN8 20 mg/kg)?
**A.** The value was 62.1±23.84.

**Q.** What about the “Alkaline phosphatase, ALP” value (ICR (CD-1) mice; IP, RN7-IN10, RN7-IN8 20 mg/kg) of the same substance?
**A.** The value was 115.4±34.9.

**Q.** What about the “Aspartate aminotransferase, AST” value (ICR (CD-1) mice; IP, RN7-IN10, RN7-IN8 20 mg/kg) of the same substance?
**A.** Its value is 148.9±21.51.

**Q.** And the Creatinine (ICR (CD-1) mice; IP, RN7-IN10, RN7-IN8 20 mg/kg)?
**A.** Its Creatinine is 39.2±3.81.

**Q.** And the Total bilirubin (ICR (CD-1) mice; IP, RN7-IN10, RN7-IN8 20 mg/kg)?
**A.** The Total bilirubin was 1.98±0.11.

**Q.** And the Urea (ICR (CD-1) mice; IP, RN7-IN10, RN7-IN8 20 mg/kg)?
**A.** Its Urea is 10.34±2.36.

**Q.** What about the “Alanine transaminase, ALT” value (ICR (CD-1) mice; [2]) of the same substance?
**A.** Its value is 50±5.49.

**Q.** What about the “Alkaline phosphatase, ALP” value (ICR (CD-1) mice; [2]) of the same substance?
**A.** The value was 134±8.24.

**Q.** And the “Aspartate aminotransferase, AST” value (ICR (CD-1) mice; [2])?
**A.** The value was 170.75±14.52.

**Q.** What about the Creatinine (ICR (CD-1) mice; [2]) of the same substance?
**A.** Its Creatinine is 43.4±0.8.

**Q.** And the Total bilirubin (ICR (CD-1) mice; [2])?
**A.** Its Total bilirubin is 1.84±0.12.

**Q.** What about the Urea (ICR (CD-1) mice; [2]) of the same substance?
**A.** Its Urea is 9.61±3.02.
